# Experimental data as given in ChEMBL document CHEMBL1909046, “DrugMatrix in vitro pharmacology data”.
# Columns and labels:
# Leukotriene C4 synthase = target: T1, Leukotriene C4 synthase (Cavia porcellus, UniProt A6XA80); test: biochemical; format: tissue-based, Lung;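 further: enzyme inhibition assay of leukotriene C4 synthase, using LTA4 as the substrate; in other assays of this panel Not Active means under 50% inhibition at 10 µM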
# T1 sequence (A6XA80 whole entry): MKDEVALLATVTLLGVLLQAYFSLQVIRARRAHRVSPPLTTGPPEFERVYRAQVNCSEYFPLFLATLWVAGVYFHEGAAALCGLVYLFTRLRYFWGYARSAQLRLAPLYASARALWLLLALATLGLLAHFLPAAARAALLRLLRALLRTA
# [1] = target: T2, Receptor-type tyrosine-protein phosphatase C (Homo sapiens, UniProt P08575); design: species or system Escherichia coli;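 further: inhibition of CD45 enzyme activity measured using DiFMUP as substrate; in other assays of this panel Not Active means under 50% inhibition at 10 µM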
# T2 sequence (P08575 whole entry): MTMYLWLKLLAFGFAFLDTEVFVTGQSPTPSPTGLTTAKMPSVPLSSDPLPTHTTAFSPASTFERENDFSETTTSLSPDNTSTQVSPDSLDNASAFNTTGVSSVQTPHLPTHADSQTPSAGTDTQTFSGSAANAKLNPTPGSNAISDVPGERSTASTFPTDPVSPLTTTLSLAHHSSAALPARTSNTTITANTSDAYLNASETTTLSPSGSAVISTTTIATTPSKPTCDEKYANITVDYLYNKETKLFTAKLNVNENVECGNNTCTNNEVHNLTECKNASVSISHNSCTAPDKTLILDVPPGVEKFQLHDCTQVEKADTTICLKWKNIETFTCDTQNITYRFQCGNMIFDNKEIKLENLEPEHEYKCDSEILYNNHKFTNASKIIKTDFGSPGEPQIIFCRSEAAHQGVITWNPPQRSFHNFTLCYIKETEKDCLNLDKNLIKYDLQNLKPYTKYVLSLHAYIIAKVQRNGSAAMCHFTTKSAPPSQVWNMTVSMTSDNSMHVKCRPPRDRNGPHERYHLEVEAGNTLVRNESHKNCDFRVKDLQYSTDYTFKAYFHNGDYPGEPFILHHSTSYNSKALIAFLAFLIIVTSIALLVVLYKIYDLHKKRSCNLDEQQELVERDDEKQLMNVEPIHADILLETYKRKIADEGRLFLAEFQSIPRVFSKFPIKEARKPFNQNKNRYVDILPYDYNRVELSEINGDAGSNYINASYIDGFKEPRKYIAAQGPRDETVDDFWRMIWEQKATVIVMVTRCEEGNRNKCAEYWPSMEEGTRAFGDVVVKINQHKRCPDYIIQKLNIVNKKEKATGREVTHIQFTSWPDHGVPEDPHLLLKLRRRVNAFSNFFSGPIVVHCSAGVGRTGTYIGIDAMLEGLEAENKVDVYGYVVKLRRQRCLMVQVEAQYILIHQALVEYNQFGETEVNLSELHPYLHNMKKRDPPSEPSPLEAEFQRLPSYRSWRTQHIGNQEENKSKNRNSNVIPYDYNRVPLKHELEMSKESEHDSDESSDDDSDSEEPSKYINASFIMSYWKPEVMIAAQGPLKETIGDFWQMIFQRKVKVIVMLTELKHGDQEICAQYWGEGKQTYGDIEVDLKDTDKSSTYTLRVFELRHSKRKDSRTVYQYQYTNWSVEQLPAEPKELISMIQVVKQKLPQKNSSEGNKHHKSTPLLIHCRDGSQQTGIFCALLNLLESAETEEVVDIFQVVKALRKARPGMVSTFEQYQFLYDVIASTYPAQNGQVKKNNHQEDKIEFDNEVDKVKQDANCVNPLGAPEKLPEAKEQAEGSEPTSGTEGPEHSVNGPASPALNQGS
# Interstitial collagenase = target: T3, Interstitial collagenase (Homo sapiens, UniProt P03956); test: biochemical; format: tissue-based, Rheumatoid synovial fibroblasts;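 further: MMP-1 enzyme inhibition assay using a peptide substrate; in other assays of this panel Not Active means under 50% inhibition at 10 µM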
# T3 sequence (P03956 whole entry): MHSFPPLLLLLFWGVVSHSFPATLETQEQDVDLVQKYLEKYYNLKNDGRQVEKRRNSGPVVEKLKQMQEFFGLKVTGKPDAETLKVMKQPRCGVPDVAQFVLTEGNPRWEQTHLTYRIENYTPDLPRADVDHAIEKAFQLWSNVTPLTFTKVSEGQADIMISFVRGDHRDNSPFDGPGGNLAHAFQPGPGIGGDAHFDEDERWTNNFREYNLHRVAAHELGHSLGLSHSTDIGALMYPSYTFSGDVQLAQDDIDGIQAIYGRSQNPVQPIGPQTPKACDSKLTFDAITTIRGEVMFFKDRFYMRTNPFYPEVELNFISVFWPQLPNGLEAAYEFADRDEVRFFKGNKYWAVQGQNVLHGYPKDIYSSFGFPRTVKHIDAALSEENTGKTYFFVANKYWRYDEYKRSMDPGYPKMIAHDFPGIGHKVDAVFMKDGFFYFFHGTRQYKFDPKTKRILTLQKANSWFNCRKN
# [2] = DRUGMATRIX: Sodium/nucleoside co-transporter radioligand binding (ligand: nitrobenzylthioinosine); format: cell membranes, Cavia porcellus, Dunkin-Hartley, Cerebral cortex, Membrane; conditions: Not Active = under 50% inhibition at 10 µM
# [3] = DRUGMATRIX: Phosphodiesterase PDE3 enzyme inhibition (substrate: [3H]cAMP + cAMP); format: tissue-based, Homo sapiens; conditions: platelet; Not Active = under 50% inhibition at 10 µM
# [4] = DRUGMATRIX: GABAA, Flunitrazepam, Central radioligand binding (ligand: [3H] Flunitrazepam); format: cell membranes, Rattus norvegicus, Wistar, Brain, Membrane; conditions: Not Active = under 50% inhibition at 10 µM
Compound,IC50 (Leukotriene C4 synthase),IC50 [1],IC50 (Interstitial collagenase),IC50 [2],Ki [2],IC50 [3],Ki [3],IC50 [4],Ki [4],IC50 (Interstitial collagenase; read-out: IC50),IC50 ([2]; read-out: IC50),Ki ([2]; read-out: Ki)
Cc1cc2c(s1)Nc1ccccc1N=C2N1CCN(C)CC1 [OLANZAPINE],Not Active,Not Active,Not Active,–,–,–,–,–,–,–,–,–
CC1(C)[C@H](C(=O)O)N2C(=O)C[C@H]2S1(=O)=O [SULBACTAM],Not Active,Not Active,Not Active,Not Active,Not Active,Not Active,Not Active,Not Active,Not Active,–,–,–
Oc1ccc(/C=C/c2cc(O)cc(O)c2)cc1 [RESVERATROL],Not Active,Not Active,Not Active,Not Active,Not Active,Not Active,Not Active,Not Active,Not Active,–,–,–
O=C1CC[C@@]2(O)[C@H]3Cc4ccc(O)c5c4[C@@]2(CCN3CC2CC2)[C@H]1O5 [NALTREXONE],Not Active,Not Active,Not Active,Not Active,Not Active,Not Active,Not Active,Not Active,Not Active,–,–,–
Cc1nnc(NS(=O)(=O)c2ccc(N)cc2)s1 [SULFAMETHIZOLE],Not Active,Not Active,Not Active,Not Active,Not Active,Not Active,Not Active,Not Active,Not Active,–,–,–
C=CCc1ccc2c(c1)OCO2 [SAFROLE],Not Active,Not Active,Not Active,Not Active,Not Active,Not Active,Not Active,Not Active,Not Active,–,–,–
Cc1cn([C@H]2C=C[C@@H](CO)O2)c(=O)[nH]c1=O [STAVUDINE],Not Active,Not Active,Not Active,Not Active,Not Active,Not Active,Not Active,Not Active,Not Active,–,–,–
CC1=C(/C=C/C(C)=C/C=C/C(C)=C/C(=O)O)C(C)(C)CCC1 [TRETINOIN],Not Active,Not Active,Not Active,Not Active,Not Active,Not Active,Not Active,Not Active,Not Active,–,–,–
Nc1nc(N)c2nc(-c3ccccc3)c(N)nc2n1,Not Active,Not Active,Not Active,Not Active,Not Active,Not Active,Not Active,Not Active,Not Active,–,–,–
CN1C(=O)OC(C)(C)C1=O [TRIMETHADIONE],Not Active,Not Active,Not Active,Not Active,Not Active,Not Active,Not Active,Not Active,Not Active,–,–,–
Cc1ccc(S(=O)(=O)NC(=O)NN2CCCCCC2)cc1 [TOLAZAMIDE],Not Active,Not Active,Not Active,Not Active,Not Active,Not Active,Not Active,Not Active,Not Active,–,–,–
O=C(O)c1cc(/N=N/c2ccc(S(=O)(=O)Nc3ccccn3)cc2)ccc1O [SULFASALAZINE],Not Active,Not Active,–,Not Active,Not Active,Not Active,Not Active,Not Active,Not Active,23.5 µM,–,–
CCN(CC)C(=S)SSC(=S)N(CC)CC,Not Active,Not Active,Not Active,–,–,Not Active,Not Active,Not Active,Not Active,–,16.9 µM,5.79 µM
CS(=O)(=O)c1ccc(C2=C(c3ccccc3)C(=O)OC2)cc1 [ROFECOXIB],Not Active,Not Active,Not Active,Not Active,Not Active,Not Active,Not Active,Not Active,Not Active,–,–,–
Cc1cnc(NC(=O)C2=C(O)c3ccccc3S(=O)(=O)N2C)s1 [MELOXICAM],Not Active,Not Active,Not Active,Not Active,Not Active,Not Active,Not Active,Not Active,Not Active,–,–,–
C1CCN2C[C@@H]3C[C@@H](CN4CCCC[C@@H]34)[C@H]2C1 [SPARTEINE],Not Active,Not Active,Not Active,Not Active,Not Active,Not Active,Not Active,Not Active,Not Active,–,–,–
CO[C@@H]1[C@@H](OC)[C@H](C)[C@@](O)(CC(=O)O)O[C@H]1[C@H](C)[C@H]1O[C@@]2(CC[C@@](C)([C@H]3CC[C@@](C)([C@@H]4O[C@@H]([C@H]5O[C@](C)(O)[C@H](C)C[C@@H]5C)C[C@@H]4O[C@@H]4C[C@H](OC)[C@@H](OC)[C@H](C)O4)O3)O2)C[C@H](O)[C@H]1C.N [MADURAMICIN],Not Active,Not Active,Not Active,Not Active,Not Active,Not Active,Not Active,Not Active,Not Active,–,–,–
CC[C@@]1(O)C(=O)OCc2c1cc1n(c2=O)Cc2cc3c(CN(C)C)c(O)ccc3nc2-1 [TOPOTECAN],Not Active,Not Active,Not Active,Not Active,Not Active,Not Active,Not Active,Not Active,Not Active,–,–,–
C#C[C@]1(O)CC[C@H]2[C@@H]3[C@H](C)CC4=C(CCC(=O)C4)[C@H]3CC[C@@]21C [TIBOLONE],Not Active,Not Active,Not Active,Not Active,Not Active,Not Active,Not Active,Not Active,Not Active,–,–,–
C[N+]1(C)[C@@H]2C[C@@H](OC(=O)[C@H](CO)c3ccccc3)C[C@H]1[C@@H]1O[C@@H]12.[Br-] [METHSCOPOLAMINE BROMIDE],Not Active,Not Active,Not Active,Not Active,Not Active,Not Active,Not Active,Not Active,Not Active,–,–,–
CNCCCC12CCC(c3ccccc31)c1ccccc12 [MAPROTILINE],Not Active,Not Active,Not Active,–,–,–,–,–,–,–,–,–
CN(C)CCC=C1c2ccccc2COc2ccccc21 [DOXEPIN],Not Active,Not Active,Not Active,–,–,–,–,–,–,–,–,–
